Measured values from article PMC4908816 (Molecular microbiology, 2016).
“And” between values parts separate entries of the source, which are not always exact repeats. Identical values can stand only once.

Experiments:
[1] = biological target: T1, TrwD (Escherichia coli, UniProt O50338); assay: ATP hydrolysis assay; format: biochemical, conjugative plasmid R388; conditions: for inhibition (reduction) of TrwD ATPase activity: 50 μM fatty acid; for K0.5 ATP of TrwD in the presence of fatty acid / mechanism of inhibition of TrwD ATP hydrolysis: 21 μM linoleic acid or 30 μM 2-HDA; for K0.5 ATP of TrwD in the presence of fatty acid: 44 μM in the absence of fatty acids; for mechanism of inhibition of TrwD ATP hydrolysis: increasing ATP; for effect on Vmax of TrwD ATP hydrolysis: compound at its Ki[app] (21 μM linoleic acid, 30 μM 2-HDA)
[2] = biological target: T1, TrwD; assay: Partial proteolysis of TrwD by papain; parameters: species or system conjugative plasmid R388; conditions: 1:10 to 1:100 TrwD:2-HDA or 1:100 TrwD:palmitic acid molar ratio; 90 min, 25 °C
[3] = tested on: R388-mediated conjugation; conditions: cited from earlier work; for inhibition of bacterial conjugation in vivo assays: ref Fernández-Lopez et al., 2005; for inhibition of bacterial conjugation: ref Getino et al., 2015
[4] = tested on: R388 transfer (bacterial conjugation); assay: High-throughput conjugation assay; format: cell-based; conditions: 500 μM compound (Fig. 3A), E. coli DH5α donor, BL21(DE3) recipient
[5] = biological target: TrwB (Escherichia coli, UniProt Q04230); assay: ATP hydrolysis assay; format: biochemical, conjugative plasmid R388; conditions: 50 μM linoleic acid; ATPase 2 μM
[6] = tested on: TrwC; assay: ATP hydrolysis assay; format: biochemical, conjugative plasmid R388; conditions: 50 μM linoleic acid; ATPase 2 μM
[7] = biological target: TrwK (Escherichia coli, UniProt O50330); assay: ATP hydrolysis assay; format: biochemical, conjugative plasmid R388; conditions: 50 μM linoleic acid; ATPase 2 μM

T1 sequence (O50338 1-358): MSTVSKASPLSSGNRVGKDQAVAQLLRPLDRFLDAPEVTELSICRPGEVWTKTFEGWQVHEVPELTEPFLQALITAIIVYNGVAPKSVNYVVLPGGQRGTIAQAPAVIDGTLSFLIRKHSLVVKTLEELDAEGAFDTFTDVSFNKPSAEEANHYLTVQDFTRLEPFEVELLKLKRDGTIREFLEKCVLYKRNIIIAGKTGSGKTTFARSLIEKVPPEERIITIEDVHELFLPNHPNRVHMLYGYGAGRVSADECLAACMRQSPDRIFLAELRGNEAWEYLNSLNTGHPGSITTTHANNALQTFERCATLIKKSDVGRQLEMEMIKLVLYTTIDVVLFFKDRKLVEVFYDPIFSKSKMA

## CCCCCCCCCCCCCCCC(=O)O [Palmitic acid]
[1]; TrwD 2 μM
  inhibition (reduction) of TrwD ATPase activity: no inhibition was observed
[2]
  susceptibility of TrwD to papain digestion: did not affect the susceptibility
[3]
  inhibition of bacterial conjugation in vivo assays: unable to inhibit significantly

## CCCCCCCCCCCCCC#CC(=O)O [2-HDA, 2-hexadecynoic acid]
[1]
  Ki: 29.7 ± 2.1 µM
  mechanism of inhibition of TrwD ATP hydrolysis: non-competitive
  effect on Vmax of TrwD ATP hydrolysis: reduced by half
[1]; TrwD 2 μM
  K0.5 ATP of TrwD in the presence of fatty acid: 66 µM
[1]; 30 μM 2-HDA, TrwD 2 μM, control without 2-HDA 45.1 ± 4.1 μM
  Kd ADP of TrwD in the presence of fatty acid: 51 µM and 51.7 ± 9.8 µM
[2]
  susceptibility of TrwD to papain digestion: high susceptibility to papain degradation
[3]
  inhibition of bacterial conjugation: more effective in inhibiting bacterial conjugation

## CCCCCCCCCC#CCCC#CC(=O)O [2,6-HDA, 2,6 hexadecadiynoic acid]
[1]
  Ki: 43.8 ± 2.8 µM
[4]
  inhibition of bacterial conjugation: efficient conjugation inhibitors
[3]
  inhibition of bacterial conjugation: more effective in inhibiting bacterial conjugation

## CCCCCCCCCCCC(=O)O [Lauric acid]
[1]; TrwD 2 μM
  inhibition (reduction) of TrwD ATPase activity: no inhibition was observed
[3]
  inhibition of bacterial conjugation in vivo assays: unable to inhibit significantly

## CCCCCCCCCCCCCCCC#CC(=O)O [2-ODA, 2-octadecynoic acid]
[1]
  Ki: 29.8 ± 4.1 µM
[4]
  inhibition of bacterial conjugation: efficient conjugation inhibitors
[3]
  inhibition of bacterial conjugation: more effective in inhibiting bacterial conjugation

## CCCCCCCC/C=C\CCCCCCCC(=O)O [oleic acid]
[1]; TrwD 2 μM
  inhibition (reduction) of TrwD ATPase activity: more than 90%
[3]
  inhibition of bacterial conjugation in vivo assays: effective inhibitors of bacterial conjugation

## CCCCC/C=C\C/C=C\CCCCCCCC(=O)O [linoleic acid]
[1]
  Ki: 20.9 ± 1.6 µM
  mechanism of inhibition of TrwD ATP hydrolysis: non-competitive
  effect on Vmax of TrwD ATP hydrolysis: reduced by half
[1]; TrwD 2 μM
  K0.5 ATP of TrwD in the presence of fatty acid: 44 µM
[5]
  effect on TrwB ATPase activity: no significant effect
[6]
  effect on TrwC ATPase activity: no significant effect
[7]
  effect on TrwK ATPase activity: no significant effect
[3]
  inhibition of bacterial conjugation in vivo assays: effective inhibitors of bacterial conjugation
